Molecules are shown by their SMILES.

With `CCCC(=O)OC[C@H]1O[C@@H](n2cnc3c(OC)ncnc32)[C@@H](O)[C@@H]1OC(=O)CCC`, the logP – broadly, the decadic logarithm of the partition coefficient of the neutral form, usually between octanol and water – came out at 3.67.

`CCC(=O)OC[C@H]1O[C@@H](n2cnc3c(OC)ncnc32)[C@@H](OC(=O)CC)[C@@H]1OC(=O)CC` had a logP of 2.75.

`CCC(=O)O[C@H]1[C@H](OC(=O)CC)[C@@H](CO)O[C@H]1n1cnc2c(OC)ncnc21` registered a logP of 2.07.

Consider `COc1ccc(C(=O)OC[C@H]2O[C@@H](n3cnc4c(OC)ncnc43)[C@@H](OC(=O)c3ccc(OC)cc3)[C@@H]2O)cc1`, for which the logP came out at 3.65.

Consider `COc1ncnc2c1ncn2[C@@H]1O[C@H](COC(=O)c2ccccc2)[C@@H](O)[C@@H]1OC(=O)c1ccccc1`, for which the logP amounted to 3.39.

In turn, `COc1ncnc2c1ncn2[C@@H]1O[C@H](CO)[C@@H](O)[C@@H]1O` returned a logP of 0.5.

In turn, `COc1ncnc2c1ncn2[C@@H]1O[C@H](COC(=O)C(C)(C)C)[C@@H](O)[C@@H]1OC(=O)C(C)(C)C` showed a logP of 3.4.

As for `COc1ncnc2c1ncn2[C@@H]1O[C@H](COC(C)=O)[C@@H](O)[C@@H]1OC(C)=O`, the logP was 1.4.

Consider `COc1ncnc2c1ncn2[C@@H]1O[C@H](CO)[C@@H](OC(C)=O)[C@@H]1OC(C)=O`, for which the logP came to 1.33.

`COc1ncnc2c1ncn2[C@@H]1O[C@H](COS(C)(=O)=O)[C@@H](OS(C)(=O)=O)[C@@H]1OS(C)(=O)=O`: the logP was determined as 0.58.

On to `COc1ncnc2c1ncn2[C@@H]1O[C@H](CO)[C@@H](OC(=O)Cc2ccccc2)[C@@H]1OC(=O)Cc1ccccc1`, for which the lipophilicity (logP) was 3.48.

In the case of `CCCCC(=O)O[C@H]1[C@H](OC(=O)CCCC)[C@@H](CO)O[C@H]1n1cnc2c(OC)ncnc21`, the logP is 3.83.

The molecule `CCCC(=O)OC1C(CO)OC(n2cnc3c(OC)ncnc32)C1OC(=O)CCC` (stereo not given) yielded a logP of 2.9.

Molecule `CCCCC(=O)OC[C@H]1O[C@@H](n2cnc3c(OC)ncnc32)[C@@H](OC(=O)CCCC)[C@@H]1O` came in with a logP of 3.58.

`COc1ncnc2c1ncn2[C@@H]1O[C@H](CO)[C@@H](OC(=O)C(C)C)[C@@H]1OC(=O)C(C)C` yielded a logP of 2.82.

Turning to `COc1ncnc2c1ncn2[C@@H]1O[C@H](CO)[C@@H](OC(=O)COc2ccccc2)[C@@H]1OC(=O)COc1ccccc1`, the logP is 3.4.

As to `COc1ncnc2c1ncn2[C@@H]1O[C@H](COC(C)=O)[C@@H](OC(C)=O)[C@@H]1OC(C)=O`, the logP was 1.93.

For the molecule `COc1ncnc2c1ncn2[C@@H]1O[C@H](CO)[C@@H](OC(=O)c2ccccc2)[C@@H]1OC(=O)c1ccccc1`, the logP was 3.71.

The molecule `COc1ncnc2c1ncn2[C@@H]1O[C@H](COC(=O)Cc2ccccc2)[C@@H](OC(=O)Cc2ccccc2)[C@@H]1O` yielded a logP of 4.37.

`COc1ncnc2c1ncn2[C@@H]1O[C@H](COC(=O)C(C)C)[C@@H](OC(=O)C(C)C)[C@@H]1O` gave a logP of 3.63.

For the molecule `COc1ncnc2c1ncn2[C@@H]1O[C@H](CO)[C@@H](OC(=O)C(C)(C)C)[C@@H]1OC(=O)C(C)(C)C`, the logP came to 3.61.

For the molecule `COc1ncnc2c1ncn2[C@@H]1O[C@H](COC(C)=O)[C@@H](OC(C)=O)[C@@H]1O`, the logP came to 1.75.

The molecule `COc1ncnc2c1ncn2[C@@H]1O[C@H](COC(=O)COc2ccccc2)[C@@H](OC(=O)COc2ccccc2)[C@@H]1O` registered a logP of 4.06.

In turn, `COc1ncnc2c1ncn2[C@@H]1O[C@H](COC(=O)C(C)C)[C@@H](O)[C@@H]1OC(=O)C(C)C` came in with a log partition coefficient (logP) of 2.7.

For `CCC(=O)OC[C@H]1O[C@@H](n2cnc3c(OC)ncnc32)[C@@H](O)[C@@H]1OC(=O)CC`, the logP came out at 2.7.
